Test results as given in patent US20260116920A1, “HUMAN TRANSFERRIN RECEPTOR BINDING PEPTIDE” (PEPTIDREAM INC., priority 2021, published 2026).
Like-named read-outs stand apart in the source and are kept apart here. Positions of bridges follow the written chain, without caps; N, C: chain ends. Non-standard residues stand in square brackets, D forms with d. Residues, ends and D or L forms follow the SMILES beside them. *: point of attachment. Trp(1-CH2COOH) = N[C@@H](Cc1cn(CC(=O)O)c2ccccc12)C(=O)O; BCN(endo) = O=C(OC[C@@H]1[C@@H]2CCC#CCC[C@@H]21)*; Phe(3-COOH) = N[C@@H](Cc1cccc(C(=O)O)c1)C(=O)O; NMePhe(3-Cl) = CN[C@@H](Cc1cccc(Cl)c1)C(=O)O; 3Pal(6-NH2) = Nc1ccc(C[C@H](N)C(=O)O)cn1; NMeY = CN[C@@H](Cc1ccc(O)cc1)C(=O)O; 3Pal = N[C@@H](Cc1cccnc1)C(=O)O; PEG4 = NCCOCCOCCOCCOCCC(=O)O; Carboxymethyl = O=C(O)C*

Molecular target: T1, human transferrin receptor (hTfR) (Homo sapiens, UniProt P02786)
T1 construct: made in house
T1 sequence (P02786 89-760 limits assumed): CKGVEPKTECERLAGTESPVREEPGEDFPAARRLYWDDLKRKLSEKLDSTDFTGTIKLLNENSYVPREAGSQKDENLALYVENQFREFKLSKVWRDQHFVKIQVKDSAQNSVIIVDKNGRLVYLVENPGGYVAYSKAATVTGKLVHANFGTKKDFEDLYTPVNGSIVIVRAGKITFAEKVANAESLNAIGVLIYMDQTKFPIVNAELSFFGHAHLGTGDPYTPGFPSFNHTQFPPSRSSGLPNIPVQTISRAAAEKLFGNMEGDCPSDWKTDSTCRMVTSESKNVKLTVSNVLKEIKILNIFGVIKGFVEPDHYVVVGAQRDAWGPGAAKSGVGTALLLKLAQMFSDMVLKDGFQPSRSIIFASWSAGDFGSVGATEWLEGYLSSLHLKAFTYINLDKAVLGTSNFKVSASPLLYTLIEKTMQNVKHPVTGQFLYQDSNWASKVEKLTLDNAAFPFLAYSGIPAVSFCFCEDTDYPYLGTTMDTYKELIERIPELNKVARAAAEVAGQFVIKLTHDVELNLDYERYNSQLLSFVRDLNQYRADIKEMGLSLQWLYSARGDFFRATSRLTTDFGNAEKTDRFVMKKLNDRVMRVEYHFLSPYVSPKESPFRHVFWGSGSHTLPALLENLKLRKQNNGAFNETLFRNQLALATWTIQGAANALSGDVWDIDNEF
Assay: Evaluation of molecular interaction between transferrin receptor (hTfR) and peptide using surface plasmon resonance (SPR)
Assay type: binding
How it was run: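 Recombinant human TfR dimer (0.5 μM) was captured on a Ni-charged NTA chip and amine-coupled with EDC/NHS, then ethanolamine-capped. Peptides at 5–100 nM in HEPES pH 8.0 buffer with 150 mM NaCl, 0.05% Tween 20, 0.1% BSA and 1.0% DMSO were run by single-cycle kinetics; KD came from least-squares curve fitting.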

[1] = KD class for binding to hTfR by SPR, peptide with the linker shown in the same line, 'low signal indicates no activity', read-out: SPR
[2] = surface plasmon resonance, binding to hTfR, KD class symbol, read-out: SPR (KD value)

Row | Compound | Kd [1] | Kd [2]
1 | CC[C@H](C)[C@@H]1NC(=O)[C@H](Cc2ccc(OCC(=O)O)cc2)NC(=O)[C@H](Cc2ccc(O)cc2)NC(=O)[C@H](CC(N)=O)NC(=O)[C@H](Cc2cn(CC(=O)O)c3ccccc23)NC(=O)[C@H](C(C)C)NC(=O)[C@H](Cc2cccc(Cl)c2)N(C)C(=O)[C@H](C(C)C)NC(=O)[C@H](C)NC(=O)CSC[C@@H](C(=O)NCC(=O)N[C@@H](CCCCNC(=O)OC[C@@H]2[C@@H]3CCC#CCC[C@@H]32)C(N)=O)NC(=O)[C@H](Cc2ccc(O)cc2)N(C)C(=O)[C@H](Cc2ccccc2)NC(=O)[C@H](CCCNC(=N)N)NC(=O)[C@H](CCC(=O)NCCOCCOCCOCCOCCOCCOCCOCCOC)NC(=O)[C@H]([C@@H](C)CC)NC1=O [894_3199] | < 1 nM | 
2 | CC[C@H](C)[C@@H]1NC(=O)[C@H](Cc2cccnc2)NC(=O)[C@H](Cc2ccc(N)nc2)NC(=O)[C@H](CC(N)=O)NC(=O)[C@H](Cc2c[nH]c3ccccc23)NC(=O)[C@H](C(C)C)NC(=O)[C@H](Cc2cccc(Cl)c2)N(C)C(=O)[C@H](C(C)C)NC(=O)[C@H](C)NC(=O)CSC[C@@H](C(=O)NCCOCCOCCOCCOCCC(N)=O)NC(=O)[C@H](Cc2ccc(O)cc2)N(C)C(=O)[C@H](Cc2cccc(C(=O)O)c2)NC(=O)[C@H](CCCNC(=N)N)NC(=O)[C@H](CCCNC(=N)N)NC(=O)[C@H]([C@@H](C)CC)NC1=O [SEQ ID No. 198] ({CH2CO}-AV[NMePhe(3-Cl)]VWN[3Pal(6-NH2)][3Pal]IIRR[Phe(3-COOH)][NMeY]C[PEG4]-NH2; thioether N-15) | 1 to 100 nM | 
3 | CC[C@H](C)[C@@H]1NC(=O)[C@H](Cc2ccc(O)cc2)NC(=O)[C@H](Cc2ccc(O)cc2)NC(=O)[C@H](CC(N)=O)NC(=O)[C@H](Cc2c[nH]c3ccccc23)NC(=O)[C@H](C(C)C)NC(=O)[C@H](Cc2ccccc2)N(C)C(=O)[C@H](C(C)C)NC(=O)[C@H](C)NC(=O)CSC[C@@H](C(N)=O)NC(=O)[C@H](Cc2ccc(O)cc2)N(C)C(=O)[C@H](Cc2ccccc2)NC(=O)[C@H](CCCNC(=N)N)NC(=O)[C@H](CCCCNC(=O)CCOCCOCCOCCOC)NC(=O)[C@H]([C@@H](C)CC)NC1=O [compound 1] |  | 1 to 100 nM
4 | CC[C@H](C)[C@@H]1NC(=O)[C@H](Cc2ccc(O)cc2)NC(=O)[C@H](Cc2ccc(O)cc2)NC(=O)[C@H](CC(N)=O)NC(=O)[C@H](Cc2c[nH]c3ccccc23)NC(=O)[C@H](C(C)C)NC(=O)[C@H](Cc2ccccc2)N(C)C(=O)[C@H](C(C)C)NC(=O)[C@H](C)NC(=O)CSC[C@@H](C(N)=O)NC(=O)[C@H](Cc2ccc(O)cc2)N(C)C(=O)[C@H](Cc2ccccc2)NC(=O)[C@H](CCCCNC(=O)CCOCCOCCOCCOC)NC(=O)[C@H](CCCNC(=N)N)NC(=O)[C@H]([C@@H](C)CC)NC1=O [compound 2] |  | 1 to 100 nM
5 | CC[C@H](C)[C@@H]1NC(=O)[C@H](Cc2ccc(OC)cc2)NC(=O)[C@H](Cc2ccc(O)cc2)NC(=O)[C@H](CC(N)=O)NC(=O)[C@H](Cc2c[nH]c3ccc(Cl)cc23)NC(=O)[C@H](C(C)C)NC(=O)[C@H](Cc2ccc(F)cc2)N(C)C(=O)[C@H](C(C)C)NC(=O)[C@H](C)NC(=O)CSC[C@@H](C(N)=O)NC(=O)[C@H](Cc2ccc(O)cc2)N(C)C(=O)[C@H](Cc2ccccc2)NC(=O)[C@H](CCCCNC(=O)CCOCCOCCOCCOC)NC(=O)[C@H](CCCNC(=N)N)N(C)C(=O)[C@H]([C@@H](C)CC)NC1=O [compound 4] |  | 1 to 100 nM
6 | CC[C@H](C)[C@@H]1NC(=O)[C@H](Cc2ccc(OC)cc2)NC(=O)[C@H](Cc2ccc(O)cc2)NC(=O)[C@H](CC(N)=O)NC(=O)[C@H](Cc2c[nH]c3ccccc23)N(C)C(=O)[C@H](C(C)C)NC(=O)[C@H](Cc2ccc(F)cc2)N(C)C(=O)[C@H](C(C)C)NC(=O)[C@H](C)NC(=O)CSC[C@@H](C(N)=O)NC(=O)[C@H](Cc2ccc(O)cc2)N(C)C(=O)[C@H](Cc2ccccc2)NC(=O)[C@H](CCCCNC(=O)CCOCCOCCOCCOC)NC(=O)[C@H](CCCNC(=N)N)N(C)C(=O)[C@H]([C@@H](C)CC)NC1=O [compound 8] |  | 1 to 100 nM
7 | CC[C@H](C)[C@@H]1NC(=O)[C@H](Cc2ccc(OC)cc2)NC(=O)[C@H](Cc2ccc(O)cc2)NC(=O)[C@H](CC(N)=O)NC(=O)[C@H](Cc2c[nH]c3ccccc23)N(C)C(=O)[C@H](C(C)C)NC(=O)[C@H](Cc2cccc(Cl)c2)N(C)C(=O)[C@H](C(C)C)NC(=O)[C@H](C)N(C)C(=O)CSC[C@@H](C(=O)NCCOCCOCCOCCOCCC(N)=O)NC(=O)[C@H](Cc2ccc(O)cc2)N(C)C(=O)[C@H](Cc2ccccc2)NC(=O)[C@@H](C)NC(=O)[C@H](CCCNC(=N)N)NC(=O)[C@H]([C@@H](C)CC)NC1=O [compound 10] |  | 1 to 100 nM

The remaining lines, values ahead:

Row | Kd [1] | Kd [2] | Compound
8 | < 1 nM |  | CC[C@H](C)[C@@H]1NC(=O)[C@H](Cc2ccc(OCC(=O)O)cc2)NC(=O)[C@H](Cc2ccc(O)cc2)NC(=O)[C@H](CC(N)=O)NC(=O)[C@H](Cc2cn(CC(=O)O)c3ccccc23)NC(=O)[C@H](C(C)C)NC(=O)[C@H](Cc2cccc(Cl)c2)N(C)C(=O)[C@H](C(C)C)NC(=O)[C@H](C)NC(=O)CSC[C@@H](C(=O)NCC(=O)N[C@H](CO)C(=O)N[C@H](CO)C(=O)N[C@H](CO)C(=O)N[C@H](CO)C(=O)N[C@H](CO)C(=O)N[C@@H](CCCCNC(=O)OC[C@@H]2[C@@H]3CCC#CCC[C@@H]32)C(N)=O)NC(=O)[C@H](Cc2ccc(O)cc2)N(C)C(=O)[C@H](Cc2ccccc2)NC(=O)[C@H](CCCNC(=N)N)NC(=O)[C@H](CCCNC(=N)N)NC(=O)[C@H]([C@@H](C)CC)NC1=O [894_3198] ({CH2CO}-AV[NMePhe(3-Cl)]V[Trp(1-CH2COOH)]NYY(Carboxymethyl)IIRRF[NMeY]CG[dS][dS][dS][dS][dS]K(BCN(endo))-NH2; thioether N-15)
9 | < 1 nM |  | CC[C@H](C)[C@@H]1NC(=O)[C@H](Cc2ccc(O)cc2)NC(=O)[C@H](Cc2ccc(O)cc2)NC(=O)[C@H](CC(N)=O)NC(=O)[C@H](Cc2c[nH]c3ccccc23)N(C)C(=O)[C@H](C(C)C)NC(=O)[C@H](Cc2ccccc2)N(C)C(=O)[C@H](C(C)C)NC(=O)[C@H](C)NC(=O)CSC[C@@H](C(=O)NCC(=O)N[C@H](CO)C(=O)N[C@H](CO)C(=O)N[C@H](CO)C(=O)N[C@H](CO)C(=O)N[C@H](CO)C(=O)N[C@@H](CCCCN=[N+]=[N-])C(N)=O)NC(=O)[C@H](Cc2ccc(O)cc2)N(C)C(=O)[C@H](Cc2ccc(O)cc2)NC(=O)[C@H](CCCNC(=N)N)NC(=O)[C@H](CCCCN)NC(=O)[C@H]([C@@H](C)CC)NC1=O [894_3200]
10 |  | 1 to 100 nM | CC[C@H](C)[C@@H]1NC(=O)[C@H](Cc2ccc(O)cc2)NC(=O)[C@H](Cc2ccc(O)cc2)NC(=O)[C@H](CC(N)=O)NC(=O)[C@H](Cc2c[nH]c3ccc(Cl)cc23)NC(=O)[C@H](C(C)C)NC(=O)[C@H](Cc2ccc(F)cc2)N(C)C(=O)[C@H](C(C)C)NC(=O)[C@H](C)NC(=O)CSC[C@@H](C(N)=O)NC(=O)[C@H](Cc2ccc(O)cc2)N(C)C(=O)[C@H](Cc2ccccc2)NC(=O)[C@H](CCCCNC(=O)CCOCCOCCOCCOC)NC(=O)[C@H](CCCNC(=N)N)N(C)C(=O)[C@H]([C@@H](C)CC)NC1=O [compound 3]
11 |  | 1 to 100 nM | CC[C@H](C)[C@@H]1NC(=O)[C@H](Cc2ccc(O)cc2)NC(=O)[C@H](Cc2ccc(O)cc2)NC(=O)[C@H](CC(N)=O)NC(=O)[C@H](Cc2c[nH]c3ccccc23)N(C)C(=O)[C@H](C(C)C)NC(=O)[C@H](Cc2ccc(F)cc2)N(C)C(=O)[C@H](C(C)C)NC(=O)[C@H](C)NC(=O)CSC[C@@H](C(N)=O)NC(=O)[C@H](Cc2ccc(O)cc2)N(C)C(=O)[C@H](Cc2ccccc2)NC(=O)[C@@H](CCCNC(=N)N)NC(=O)[C@H](CCCCNC(=O)CCOCCOCCOCCOC)NC(=O)[C@H]([C@@H](C)CC)NC1=O [compound 5]
12 |  | 1 to 100 nM | CC[C@H](C)[C@@H]1NC(=O)[C@H](Cc2ccc(OC)cc2)NC(=O)[C@H](Cc2ccc(O)cc2)NC(=O)[C@H](CC(N)=O)NC(=O)[C@H](Cc2c[nH]c3ccccc23)N(C)C(=O)[C@H](C(C)C)NC(=O)[C@H](Cc2ccc(F)cc2)N(C)C(=O)[C@H](C(C)C)NC(=O)[C@H](C)NC(=O)CSC[C@@H](C(N)=O)NC(=O)[C@H](Cc2ccc(O)cc2)N(C)C(=O)[C@H](Cc2ccccc2)NC(=O)[C@@H](CCCNC(=N)N)NC(=O)[C@H](CCCCNC(=O)CCOCCOCCOCCOC)NC(=O)[C@H]([C@@H](C)CC)NC1=O [compound 6]
13 |  | 1 to 100 nM | CC[C@H](C)[C@@H]1NC(=O)[C@H](Cc2ccc(O)cc2)NC(=O)[C@H](Cc2ccc(O)cc2)NC(=O)[C@H](CC(N)=O)NC(=O)[C@H](Cc2c[nH]c3ccccc23)N(C)C(=O)[C@H](C(C)C)NC(=O)[C@H](Cc2ccc(F)cc2)N(C)C(=O)[C@H](C(C)C)NC(=O)[C@H](C)NC(=O)CSC[C@@H](C(N)=O)NC(=O)[C@H](Cc2ccc(O)cc2)N(C)C(=O)[C@H](Cc2ccccc2)NC(=O)[C@H](CCCCNC(=O)CCOCCOCCOCCOC)NC(=O)[C@H](CCCNC(=N)N)N(C)C(=O)[C@H]([C@@H](C)CC)NC1=O [compound 7]
14 |  | 100 to 1000 nM | CC[C@H](C)[C@@H]1NC(=O)[C@H](Cc2ccc(O)cc2)NC(=O)[C@H](Cc2ccc(O)cc2)NC(=O)[C@H](CC(=O)N(C)C)NC(=O)[C@H](Cc2c[nH]c3ccccc23)NC(=O)[C@H](C(C)C)NC(=O)[C@H](Cc2ccccc2)N(C)C(=O)[C@H](C(C)C)NC(=O)[C@H](C)NC(=O)CSC[C@@H](C(N)=O)NC(=O)[C@H](Cc2ccc(O)cc2)N(C)C(=O)[C@H](Cc2ccc(O)cc2)NC(=O)[C@H](CCCNC(=N)N)NC(=O)[C@H](CCCNC(=N)N)NC(=O)[C@H]([C@@H](C)CC)NC1=O [compound 9]
15 |  | 1 to 100 nM | CC[C@H](C)[C@@H]1NC(=O)[C@H](Cc2ccc(OC)cc2)NC(=O)[C@H](Cc2ccc(O)cc2)NC(=O)[C@H](CC(N)=O)NC(=O)[C@H](Cc2c[nH]c3ccccc23)NC(=O)[C@H](C(C)C)NC(=O)[C@H](Cc2cccc(Cl)c2)N(C)C(=O)[C@H](C(C)C)NC(=O)[C@H](C)NC(=O)CSC[C@@H](C(=O)NCC(=O)N[C@@H](CCCCN=[N+]=[N-])C(N)=O)NC(=O)[C@H](Cc2ccc(O)cc2)N(C)C(=O)[C@H](Cc2ccccc2)NC(=O)[C@H](CCCNC(=N)N)NC(=O)[C@H](CCCNC(=N)N)NC(=O)[C@H]([C@@H](C)CC)NC1=O [compound 11]
